Here are results for one compound from ChEMBL document CHEMBL5113527, “First-in-Class Hydrazide-Based HDAC6 Selective Inhibitor with Potent Oral Anti-Inflammatory Activity by Attenuating NLRP3 Inflammasome Activation” (J Med Chem, 2022).

Calls of active or inactive are those of the source. No cut-off for these calls is given here.

The target of one data set is Histone deacetylase 3 (Homo sapiens, UniProt O15379). Briefly: Inhibition of recombinant HDAC3 (unknown origin) using Boc-Lys(acetyl)-AMC as substrate preincubated for 1 hr followed by substrate addition and measured after 2 hrs by fluorescence based microplate reader analysis.
The target in another data set is Histone deacetylase 5 (Homo sapiens, UniProt Q9UQL6). The data set is described as follows: Inhibition of recombinant HDAC5 (unknown origin) using Boc-Lys (trifluoroacetyl) AMC as substrate preincubated for 1 hr followed by substrate addition and measured after 2 hrs by fluorescence based microplate reader analysis.
In data set [1] the target is T1, Protein deacetylase HDAC6 (Homo sapiens, UniProt Q9UBN7).
T1 sequence (Q9UBN7 whole entry): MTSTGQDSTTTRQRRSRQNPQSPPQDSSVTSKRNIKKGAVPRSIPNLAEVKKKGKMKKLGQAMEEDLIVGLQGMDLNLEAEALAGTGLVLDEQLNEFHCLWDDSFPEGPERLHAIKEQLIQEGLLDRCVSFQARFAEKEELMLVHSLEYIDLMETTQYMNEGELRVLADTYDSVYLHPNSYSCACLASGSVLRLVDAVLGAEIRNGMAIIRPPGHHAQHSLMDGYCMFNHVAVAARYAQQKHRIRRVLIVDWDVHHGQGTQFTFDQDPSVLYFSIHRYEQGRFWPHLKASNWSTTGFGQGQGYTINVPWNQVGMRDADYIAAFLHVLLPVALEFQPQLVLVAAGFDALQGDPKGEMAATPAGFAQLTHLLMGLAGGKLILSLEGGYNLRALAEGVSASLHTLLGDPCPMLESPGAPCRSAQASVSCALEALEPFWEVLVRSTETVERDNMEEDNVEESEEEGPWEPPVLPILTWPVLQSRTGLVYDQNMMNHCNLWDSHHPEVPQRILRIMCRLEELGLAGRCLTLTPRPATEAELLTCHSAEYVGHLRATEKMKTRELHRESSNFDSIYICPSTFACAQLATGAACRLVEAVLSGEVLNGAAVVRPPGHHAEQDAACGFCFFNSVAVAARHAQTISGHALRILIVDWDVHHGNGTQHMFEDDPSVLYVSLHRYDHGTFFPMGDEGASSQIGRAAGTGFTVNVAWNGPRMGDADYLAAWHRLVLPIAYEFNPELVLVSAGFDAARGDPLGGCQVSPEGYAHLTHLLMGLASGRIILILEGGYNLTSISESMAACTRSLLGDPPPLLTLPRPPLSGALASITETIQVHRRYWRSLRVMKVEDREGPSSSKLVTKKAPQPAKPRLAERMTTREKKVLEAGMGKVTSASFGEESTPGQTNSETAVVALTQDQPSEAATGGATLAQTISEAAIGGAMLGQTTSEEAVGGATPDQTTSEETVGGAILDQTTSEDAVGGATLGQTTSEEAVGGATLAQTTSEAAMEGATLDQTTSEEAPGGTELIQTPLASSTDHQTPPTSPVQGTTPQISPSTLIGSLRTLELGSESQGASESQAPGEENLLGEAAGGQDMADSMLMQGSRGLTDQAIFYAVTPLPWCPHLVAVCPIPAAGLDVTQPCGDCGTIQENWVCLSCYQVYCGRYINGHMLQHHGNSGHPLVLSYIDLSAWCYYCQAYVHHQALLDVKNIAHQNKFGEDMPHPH
Briefly: Inhibition of recombinant HDAC6 (unknown origin) using Boc-Lys(acetyl)-AMC as substrate preincubated for 1 hr followed by substrate addition and measured after 2 hrs by fluorescence based microplate reader analysis.

Data set [2] concerns the target T2, Protein deacetylase HDAC6 (Homo sapiens) (UniProt Q9UBN7).
T2 sequence (whole entry): T1 sequence (Q9UBN7 whole entry)
Briefly: Inhibition of full length recombinant human HDAC6 in MV4-11 cells assessed as accumulation of acetylated alpha-tubulin at 0.1 to 1 uM measured upto 24 hrs by western blot analysis. The class given is cell-based. The settings on record: dose 0.1-1 µM, DDE = dose-dependent effect. Background: Immunoblotting shows a protein as a band on a membrane.

The target in data set [3] is T1, Protein deacetylase HDAC6. Briefly: Inhibition of recombinant HDAC6 (unknown origin) using Boc-Lys(acetyl)-AMC as substrate preincubated for 15 mins followed by substrate addition and measured after 2 hrs by fluorescence based microplate reader analysis.
The target of data set [4] is T1, Protein deacetylase HDAC6. The data set is described as follows: Inhibition of recombinant HDAC6 (unknown origin) using Boc-Lys(acetyl)-AMC as substrate preincubated for 120 mins followed by substrate addition and measured after 2 hrs by fluorescence based microplate reader analysis.
The target of data set [5] is T2, Protein deacetylase HDAC6 (Homo sapiens). The data set is described as follows: Inhibition of HDAC6 in human MV4-11 cells assessed as decrease in hyper acetylation of histone alpha tubulin preincubated for 6 hrs followed by compound washout measured after 1 hr by western blot analysis. The class given is cell-based.
Data set [6] in a line: AUC(0 to infinity) in CD-1 mouse at 20 mg/kg, po measured after 0.083 to 24 hrs by LC-MS/MS analysis. The class given is ADME, organism-based. Further details: dose 20 mg/kg, time 0.083-24 hrs, route po. The conditions noted are these: in vivo.
Data set [7] is described as follows: Oral bioavailability in CD-1 mouse at 20 mg/kg measured after 0.083 to 24 hrs by LC-MS/MS analysis. The format is ADME, organism-based. The conditions noted are these: in vivo, time 0.083-24 hrs.
In a further data set the test system is J774.A1. Briefly: Antiinflammatory activity against LPS primed mouse J774.A1 cells assessed suppression of LPS/ATP induced IL-beta release preincubated for 30 mins followed by ATP stimulation measured after 30 mins by ELISA. The class given is functional, cell-based. A general note: In an ELISA, binding on a coated surface is turned into a signal by an enzyme label.

Data set [8] deals with Mus musculus. Briefly: Inhibition of LPS-induced endotoxic shock in C57BL/6 mouse model serum assessed as decrease in IL-1beta level at 20 mg/kg, po measured after 12 hrs. The format is functional, organism-based.
Data set [9] deals with Mus musculus. Briefly: Inhibition of LPS-induced endotoxic shock in C57BL/6 mouse model serum assessed as decrease in IL-1beta level at 10 mg/kg, ip pretreated for 1 hr followed by LPS addition measured after 12 hrs. The format is functional, organism-based. The settings on record: time 13.0 hrs.
Data set [10] in a line: Plasma concentration in CD-1 mouse at 20 mg/kg measured after 2 hrs by LC-MS/MS analysis. The class given is ADME, organism-based.
Data set [11] in a line: Brain concentration in CD-1 mouse at 20 mg/kg measured after 2 hrs by LC-MS/MS analysis. The format is ADME, organism-based. The settings on record: read-out: Ct.

Chain of Histone deacetylase 5 (Q9UQL6 whole entry): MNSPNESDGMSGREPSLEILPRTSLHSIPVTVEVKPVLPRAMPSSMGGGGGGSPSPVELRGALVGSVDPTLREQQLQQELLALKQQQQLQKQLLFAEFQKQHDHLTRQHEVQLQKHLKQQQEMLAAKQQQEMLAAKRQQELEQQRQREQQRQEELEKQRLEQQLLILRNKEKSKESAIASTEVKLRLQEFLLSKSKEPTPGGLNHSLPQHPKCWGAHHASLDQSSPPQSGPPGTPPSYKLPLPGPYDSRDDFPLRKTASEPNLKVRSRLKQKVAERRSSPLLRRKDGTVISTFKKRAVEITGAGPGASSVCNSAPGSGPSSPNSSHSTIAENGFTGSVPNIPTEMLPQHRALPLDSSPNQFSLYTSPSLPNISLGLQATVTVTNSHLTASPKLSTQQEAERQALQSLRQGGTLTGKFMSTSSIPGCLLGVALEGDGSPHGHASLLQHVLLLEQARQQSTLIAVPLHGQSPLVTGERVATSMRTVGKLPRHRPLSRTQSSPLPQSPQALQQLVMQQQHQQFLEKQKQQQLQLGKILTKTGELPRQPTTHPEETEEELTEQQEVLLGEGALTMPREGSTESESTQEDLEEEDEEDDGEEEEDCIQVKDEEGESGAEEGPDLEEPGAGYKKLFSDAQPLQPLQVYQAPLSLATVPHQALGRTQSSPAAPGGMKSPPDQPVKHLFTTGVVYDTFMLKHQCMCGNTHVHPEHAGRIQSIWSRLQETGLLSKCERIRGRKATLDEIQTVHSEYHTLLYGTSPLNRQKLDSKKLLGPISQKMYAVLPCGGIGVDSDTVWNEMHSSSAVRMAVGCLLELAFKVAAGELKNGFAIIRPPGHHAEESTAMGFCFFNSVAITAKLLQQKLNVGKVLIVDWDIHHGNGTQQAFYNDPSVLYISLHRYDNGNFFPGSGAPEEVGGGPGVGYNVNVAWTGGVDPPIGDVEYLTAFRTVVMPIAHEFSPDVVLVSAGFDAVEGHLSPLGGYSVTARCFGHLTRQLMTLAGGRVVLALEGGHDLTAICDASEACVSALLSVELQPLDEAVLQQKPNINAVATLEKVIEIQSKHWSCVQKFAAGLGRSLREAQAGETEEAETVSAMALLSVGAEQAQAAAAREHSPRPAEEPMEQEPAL
Chain of Histone deacetylase 3 (O15379 whole entry): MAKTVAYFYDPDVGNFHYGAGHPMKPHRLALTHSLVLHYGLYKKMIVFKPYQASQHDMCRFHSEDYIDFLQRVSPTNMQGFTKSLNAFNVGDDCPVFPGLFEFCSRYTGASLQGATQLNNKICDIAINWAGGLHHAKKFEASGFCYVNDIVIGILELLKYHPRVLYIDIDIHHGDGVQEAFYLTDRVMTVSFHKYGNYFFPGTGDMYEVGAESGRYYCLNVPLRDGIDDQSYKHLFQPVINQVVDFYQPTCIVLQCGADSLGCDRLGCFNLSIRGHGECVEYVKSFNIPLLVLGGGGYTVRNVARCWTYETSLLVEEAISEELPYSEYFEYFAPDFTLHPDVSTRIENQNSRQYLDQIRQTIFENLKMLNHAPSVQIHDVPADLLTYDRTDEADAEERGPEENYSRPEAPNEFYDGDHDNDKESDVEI

With `CCNNC(=O)c1ccc(CN2c3ccccc3C=Cc3ccncc32)cc1`, the IC50 (usually the point on the concentration scale where inhibition reaches its midpoint) on Histone deacetylase 3 is 1030 nM; on Histone deacetylase 5, over 5000 nM; in data set [1] it was 19 nM; in data set [3], 257 nM; in data set [4] it was 51 nM; in the data set on J774.A1, 2610 nM. For the same compound, the inhibition entry in data set [2] is “Dde”. Moreover, in [5], the inhibition entry is “Active”. Further, the AUC(0-inf) – broadly, total exposure, with the tail of the curve extrapolated – in data set [6] came out at 10300 ng·h/mL. Further, the bioavailability (usually the share of a dose that reaches the circulation, judged against a reference dose that is usually intravenous) in data set [7] came to 93.4%. In addition, the result with Mus musculus [8] and in the data set on Mus musculus [9] was Active. Moreover, the concentration at 2 h turned out to be 2320 ng/mL in data set [10] and 3280 ng/mL in data set [11].
